Laboratory results: patent US20220249458A1, “Agonists Of Adiponectin” (BAYER AKTIENGESELLSCHAFT, priority 2019, published 2022)
Read-outs that look alike come from different tables or passages of the source.

What was measured:
StAR mRNA in Y-1 cells = test: StAR mRNA induction by ACTH in adrenal cell line Y-1; format: cell-based, mouse
Method: (§1) Y-1 cells (epithelial cells of mouse adrenal gland origin) were cultivated in F12-K medium with 10% FBS and 15% donor horse serum. Cells were treated with 10 nM ACTH, and 30 min later the Adipor1/2 agonist AdipoRon was added in a final concentration of 0.1 μM, 1 μM, 10 μM for two and a half hours. Cells were harvested, mRNA isolated and […] and Star mRNA quantified relative to β-actin (Actb) mRNA. Hatched column: vehicle control, grey column: 10 nM ACTH, white columns: 10 nM ACTH+0.1 μM, 1 μM, or 10 μM AdipoRon.
(§2) ACTH is a hormone of the Hypothalamic-pituitary-adrenal axis and stimulates the expression of Steroidogenic acute regulatory protein (StAR) and […] ([…]), which then can lead to cortisol production and, as a consequence, insulin resistance. Insulin insensitivity is observed in women diagnosed with PCOS. […] EC50 for AdipoRon for this effect is around 10 μM for StAR, and around 0.1 to 1 μM for Cyp11b1, but seems to be saturated at higher concentrations.

[1] = tested on: Cyp11b1 mRNA in Y-1 cells; test: Cyp11b1 mRNA induction by ACTH in adrenal cell line Y-1; format: cell-based, mouse; details: for EC50: Mus musculus
Method: as §1, §2

LH = LH concentration in plasma of female rats at proestrous; format: in vivo, rat; details: female Han-Wistar rats, 50 or 100 mg/kg twice a day for one estrous cycle, d3 proestrous 7 pm
Excerpt: For this, the cycle phase of untreated naive female Han-Wistar rats was staged by vaginal smears. Rat plasma was taken at different days and time points of the cycle (d3=proestrous, d4=estrous), and LH in plasma determined by a rat pituitary magnetic bead panel (Milliplex, Cat No RPTMAG-86K). LH peak could be detected at d3 at 7 pm in the afternoon as described previously (Smith et al. 1975). Thus, this time point is well suited for measurement of the effect of AdipoR1 and/or AdipoR2 receptors activation by AdipoRon. […] For this, the cycle phase of untreated naive female Han-Wistar rats was staged by vaginal smears. Rats were treated for one estrous cycle, beginning with metestrous, with 50 mg/kg or 100 mg/kg of Adiporon in a suitable vehicle twice a day. Rat plasma was taken at d3=proestrous at 7 pm, and LH was determined by a rat pituitary magnetic bead panel (Milliplex Cat No RPTMAG-86K).

[2] = Single dose exposure experiment in db/db mice (unbound plasma concentration, LC/MS); format: in vivo; details: 100 mg/kg p.o. single dose, adult female db/db mice, 0.5 h, 1 h, 4 h
Method: At t=0, a dose of 50 mg/kg (circle) or 100 mg/kg (squares) was given p.o. to adult female db/db mice. At each time point (0.5 h, 1 h, and 4 h) three mice were killed and the plasma concentration of unbound AdipoRon was determined by LC/MS.

Lhcgr mRNA = Lhcgr mRNA expression in ovaries of db/db mice; format: in vivo; details: 50 mg/kg single po dose, 0.5-24 h
Method: (§3) FIGS. 6A and 6B Lhcgr mRNA expression (6A) and Cyp17a1 mRNA expression (6B) in ovaries of untreated db/db mice (black column) or db/db mice treated with 50 mg/kg Adiporon (grey column) is shown (n=3 biological replicates; error bars show SD). Expression of Cyp17a1 and Lhrgr mRNA in ovaries of adult female db/db mice were analyzed for untreated mice or mice treated with 50 mg/kg Adiporon as a single po dose given at t=0 h. At 0.5 h, 1 h, 2 h, 4 h, 24 h, mice were killed, and ovaries were taken, mRNA isolated (Qiagen, RNeasy Mini kit #74106) and mRNA quantified by Q-PCR (ThermoFisher Scientific Assay on demand #Mm00484040_ml for Cyp17a1 and Mm00442931_ml for Lhcgr).

Cyp17a1 mRNA = Cyp17a1 mRNA expression in ovaries of db/db mice; format: in vivo; details: 50 mg/kg single po dose, 0.5-24 h
Method: as §3

[3] = tested on: steroid synthesis in db/db mice; test: Plasma AUC of testosterone and progesterone in female db/db mice; format: in vivo; details: single po dose 50 and 100 mg/kg, significant at 100 mg/kg (p<0.1)
Method: Female db/db mice, which were untreated, or treated with Adiporon at 50 mg/kg and 100 mg/kg with a single po dose, were analysed. Blood was taken at 0.5, 1, 2, 4, and 24 hours, and plasma concentrations of progesterone (ibl/Tecan Order No RE52231, Hamburg) and testosterone (Demeditec Order No DEV9911, Kiel) were determined by commercial ELISAs. Area under the curve (AUC) of total steroids was determined by an algorithm according to Gagnon et al. (1998) by GraphPadPrism software. […] The effects are significant at the higher dosage of AdipoRon of 100 mg/kg after a single application (* t-test AUC versus 100 mg/kg Adiporon (n=5 time points), double sided; p<0.1).

[4] = tested on: DHEA-induced PCOS Model in rats; test: DHEA-induced PCOS Model in rats; format: in vivo, rat; details: 60 mg/kg/d DHEA sc 20 days, 50 mg/kg/d Adiporon last 10 days
Excerpt: FIG. 8: Plasma testosterone concentration [nM] […] An autostimulation of adiponectin by stimulation of AdipoR1 and/or AdipoR2 has been described before and validates the activity of AdipoRon on the AdipoR1 and/or AdipoR2 receptors (Jardé et al. 2009).

tgLH mice = test: Oral glucose tolerance test in transgenic mice overexpressing LH (tgLH); format: in vivo; details: 100 mg/kg/d for four weeks, 2 g/kg glucose after 6 h fasting
Method: 9A: Plasma insulin concentration [mg/L] in wt-mice (light grey column) and untreated tgLH mice (dark grey column) or tgLH mice treated with 100 mg/kg Adiporon (black column) is shown. 9B: Insulin concentrations [ng/mL] during OGTT in wt (left diagram) and Adipor1−/−Adipor2−/−tg mice (right diagram) treated with vehicle (open circle) or treated with 100 mg/kg (circle) are shown.
Increased LH secretion is causal for the development of PCOS in women, and tgLH overexpression in mice recapitulates the human PCOS phenotype in women. For this experiment, an oral glucose tolerance test was performed in control, transgenic LH overexpressing mice, and tgLH mice treated with Adiporon at 100 mg/kg/d for four weeks. To determine insulin sensitivity, plasma was taken at 15 min after giving an oral glucose gavage of 2 g/kg after fasting of the mice for 6 h in the last two days of the experiment (Andrikopoulos et al. 2008).

[5] = tested on: wt and Adipor1−/−Adipor2−/− mice; details: FIG. 9B, cited from earlier work
[6] = target: T1, adiponectin receptor 1 (AdipoR1) (Homo sapiens, UniProt Q96A54); details: Dib et al. 2017; cited from earlier work
T1 sequence (Q96A54 1-375): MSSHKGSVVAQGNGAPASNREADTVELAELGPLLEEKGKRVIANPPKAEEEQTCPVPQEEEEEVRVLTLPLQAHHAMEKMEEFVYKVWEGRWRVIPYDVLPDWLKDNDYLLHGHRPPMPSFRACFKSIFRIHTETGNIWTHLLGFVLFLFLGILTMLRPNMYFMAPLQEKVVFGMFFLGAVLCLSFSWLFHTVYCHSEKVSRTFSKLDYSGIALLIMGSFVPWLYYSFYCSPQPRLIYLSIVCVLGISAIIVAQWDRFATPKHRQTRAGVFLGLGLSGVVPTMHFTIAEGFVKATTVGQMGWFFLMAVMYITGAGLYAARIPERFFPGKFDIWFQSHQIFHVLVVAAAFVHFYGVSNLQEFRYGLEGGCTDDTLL

[7] = target: T2, adiponectin receptor 2 (AdipoR2) (Homo sapiens, UniProt Q86V24); details: Dib et al. 2017; cited from earlier work
T2 sequence (Q86V24 1-386): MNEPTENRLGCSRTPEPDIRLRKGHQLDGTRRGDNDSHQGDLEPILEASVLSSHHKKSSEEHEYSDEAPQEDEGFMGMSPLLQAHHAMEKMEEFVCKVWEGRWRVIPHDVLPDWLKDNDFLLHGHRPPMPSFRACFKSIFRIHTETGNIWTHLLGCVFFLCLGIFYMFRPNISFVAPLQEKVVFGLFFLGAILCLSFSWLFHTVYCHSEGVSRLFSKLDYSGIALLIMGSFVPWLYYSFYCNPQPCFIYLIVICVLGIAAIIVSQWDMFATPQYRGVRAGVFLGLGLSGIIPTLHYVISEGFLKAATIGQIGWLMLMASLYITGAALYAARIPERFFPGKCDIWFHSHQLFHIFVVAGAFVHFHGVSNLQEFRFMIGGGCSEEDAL

SMILES | effect on induction of StAR mRNA by ACTH (StAR mRNA in Y-1 cells; 10 nM ACTH + 0.1, 1 or 10 μM) | EC50 (StAR mRNA in Y-1 cells; Mus musculus, 10 nM ACTH, AdipoRon two and a half hours, FIG. 2A, read-out: EC50 for reduction of the induction of StAR by ACTH) | EC50 ([1]; Y-1 cell, as restated for FIG. 5 (see FIG. 2), read-out: EC50 value for effects in Y-1 cell) | EC50 ([1]; Y-1 cells, 10 nM ACTH, AdipoRon two and a half hours, FIG. 2B, seems saturated at higher concentrations, read-out: EC50 for reduction of the induction of Cyp11b1 by ACTH) | effect on induction of Cyp11b1 mRNA by ACTH ([1]; Y-1 cells, 10 nM ACTH + 0.1, 1 or 10 μM) | LH concentration in plasma (LH) | plasma concentration of unbound AdipoRon versus EC50 [2] | Lhcgr (LH receptor) mRNA expression in ovaries (Lhcgr mRNA) | Cyp17a1 mRNA expression in ovaries (Cyp17a1 mRNA) | plasma AUC of progesterone [3] | plasma AUC of testosterone [3] | plasma adiponectin concentration [4] | Plasma testosterone concentration ([4]; p<0.05) | insulin sensitivity (plasma insulin 15 min after oral glucose) (tgLH mice) | Insulin concentrations during OGTT, Adipor1−/−Adipor2−/− mice ([5]; mice double negative for Adiponectin Receptors 1 and 2, 100 mg/kg) | Insulin concentrations during OGTT, wild-type mice ([5]; wt mice, 100 mg/kg) | binding to AdipoR1 [6] | binding to AdipoR2 [7]
O=C(COc1ccc(C(=O)c2ccccc2)cc1)NC1CCN(Cc2ccccc2)CC1 [AdipoRon, 2-(4-Benzoylphenoxy)-N-(1-benzylpiperidin-4-yl)acetamide] | dose-dependently reduces the induction | ~10000 nM | ~100 nM | 100 to 1000 nM | dose-dependently reduces the induction | dose-dependently reduces the induction of LH | reaches the EC50 value | decreases the expression | decreases the expression | increases Progesterone plasma concentration | reduces Testosterone plasma concentration | normalizes plasma adiponectin | significantly reduces the increase in Testosterone | insulin sensitivity is increased | no effect on plasma insulin | comparable data |  | 
COc1ccc(CN2CCN(C(=O)CCNC(=O)c3ccc(C(C)(C)C)cc3)CC2)cc1 [Compound 112254, 4-(tert-Butyl)-N-(3-(4-(4-methoxybenzyl)piperazin-1-yl)-3-oxopropyl)benzamide] |  |  |  |  |  |  |  |  |  |  |  |  |  |  |  |  | binds to AdipoR1 and AdipoR2 | binds to AdipoR1 and AdipoR2
